The values that follow come from patent publication US20220251080A1, “SUBSTANTIALLY PURE VENETOCLAX AND AMORPHOUS VENETOCLAX IN A FREE DRUG PARTICULAT E FORM” (DR. REDDY'S LABORATORIES LIMITED, priority 2019, published 2022).

A short description of series [1]: Flow property measurement of powder (bulk density, tapped density, Hausner ratio, Carr's index). In kind it is physicochemical. As to conditions: for Carr's index: (tapped density-bulk density)/tapped density×100; for Tapped density: after mechanical tapping; for Hausner ratio: calculated from bulk and tapped density; for Bulk density: untapped powder sample. The text has this: (§1) As per the flow property measurement, powder obtained by reactive agglomeration has better flow indices (Carr's index and Hausner ratio) than powder obtained by solvent-antisolvent process, disclosed in example 24 of WO2017212431.
The term “bulk density” as used herein refers to the ratio of the mass to the volume (including the interparticulate void volume) of an untapped powder sample.
The term “tapped density” as used herein and it is obtained by mechanically tapping a graduated cylinder containing the sample until little further volume change is observed.
The tapping can be performed using different methods. The tapped density is calculated as mass divided by the final volume of the powder.
The term “carr's index” as used herein and it is calculated using below formula Carr Index =(tapped density-bulk density)/tapped density×100.
The term “hausner ratio” as used herein and it is calculated using below formula Hausner Ratio […]

A short description of series [2]: Filtration characteristics (specific cake resistance). In kind it is physicochemical. As to conditions: filtration of the suspension from the process.
Excerpt: as §1
The term “specific cake resistance” as used herein refers to filter cake is formed by the substances that are retained on a filter. The filter cake grows in the course of filtration, becoming thicker as particulate matter is retained. With increasing layer thickness, the flow resistance of the filter cake increases. Specific cake resistance is a measure of this resistance offered by cake towards the flow.

For the molecule `CC1(C)CCC(CN2CCN(c3ccc(C(=O)NS(=O)(=O)c4ccc(NCC5CCOCC5)c([N+](=O)[O-])c4)c(Oc4cnc5[nH]ccc5c4)c3)CC2)=C(c2ccc(Cl)cc2)C1` [Amorphous venetoclax obtained by Solvent-Anti solvent Proces] [4-(4-{[2-(4-chlorophenyl)-4,4dimethylcyclohex-1-en-1-yl]methyl}piperazin-1-yl)-N-({3-nitro-4-[(tetrahydro-2H-pyran-4ylmethyl)amino]phenyl}sulfonyl)-2-(1H-pyrrolo[2,3-1)]pyridin-5-yloxy)benzamide)], in series [1], the “Carr's index” value was 29.8, the Tapped density was determined as 0.289 g/mL, the Hausner ratio is reported as 1.4 and the Bulk density is 0.203 g/mL. For the same molecule, in series [2], the Specific cake resistance entry is reported as “Filter media clogged”.

Regarding `CC1(C)CCC(CN2CCN(c3ccc(C(=O)NS(=O)(=O)c4ccc(NCC5CCOCC5)c([N+](=O)[O-])c4)c(Oc4cnc5[nH]ccc5c4)c3)CC2)=C(c2ccc(Cl)cc2)C1` [Amorphous venetoclax obtained by reactive agglomeration proc] [4-(4-{[2-(4-chlorophenyl)-4,4dimethylcyclohex-1-en-1-yl]methyl}piperazin-1-yl)-N-({3-nitro-4-[(tetrahydro-2H-pyran-4ylmethyl)amino]phenyl}sulfonyl)-2-(1H-pyrrolo[2,3-1)]pyridin-5-yloxy)benzamide)], in series [1], the “Carr's index” value is 25.8, the Tapped density came to 0.442 g/mL, the Hausner ratio is listed as 1.3 and the Bulk density is 0.328 g/mL. The molecule further registered a Specific cake resistance in series [2] of 2.73E+10 m/Kg.
